Several values for one entry are separate records, joined by “and”; a condition that tells them apart may be missing. Equal entries are not always repeated.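 How tested: cells in 96-well plates exposed to compound for 48 hours at five concentrations. GI50 marks 50% less growth. TGI denotes the concentration required for complete inhibition of growth.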 Starred links: 1 amine or outer side, 2 acyl side, 3 side chain; linkers in the order of their positions; H or OH if unused. Positions of bridges follow the written chain, without caps; N, C: chain ends. Non-standard residues stand in square brackets, D forms with d. Residues, ends and D or L forms follow the SMILES beside them. Chains are numbered I, II in the order given. Actinocin(1to9) = Cc1c2oc3c(C)ccc(C(=O)[*:2])c3nc-2c(C(=O)[*:1])c(N)c1=O; NMeV = CN[CH](C(=O)O)C(C)C; Sar = CNCC(=O)O
How the values were obtained:
Assay in all cases: growth of human tumour cells (NCI), 48 h
UO-31 renal = test system: UO-31 renal
SN12C renal = test system: SN12C renal
UACC-257 melanoma = test system: UACC-257 melanoma
KM12 colon = test system: KM12 colon
A549 NSCLC = test system: A549 NSCLC
SK-MEL-2 melanoma = test system: SK-MEL-2 melanoma
OVCAR-8 ovarian = test system: OVCAR-8 ovarian
COLO 205 colon = test system: COLO 205 colon
NCI-H23 lung = test system: NCI-H23 lung
MOLT-4 leukemia = test system: MOLT-4 leukemia

Row | SMILES | TGI (UO-31 renal) | TGI (SN12C renal) | TGI (UACC-257 melanoma) [µM] | TGI (KM12 colon) [µM] | TGI (A549 NSCLC) [µM] | TGI (SK-MEL-2 melanoma) [µM] | TGI (OVCAR-8 ovarian) [µM] | TGI (COLO 205 colon) [µM] | TGI (NCI-H23 lung) [µM] | TGI (MOLT-4 leukemia) [µM] | GI50 (UO-31 renal) [µM] | GI50 (SN12C renal) [µM] | GI50 (UACC-257 melanoma) [µM] | GI50 (KM12 colon) [µM] | GI50 (A549 NSCLC) [µM] | GI50 (SK-MEL-2 melanoma) [µM] | GI50 (OVCAR-8 ovarian) [µM] | GI50 (COLO 205 colon) [µM] | GI50 (NCI-H23 lung) [µM]
1 | c1ccc(-c2nnn3c2NC2=C(CCCC2)C3c2ccccc2)cc1 (stereo not drawn) | 34.1 µM | 51.1 µM | 52.2 | 31.2 | 32.8 | 36 | 5.44 | 30.2 | 69.4 | 24.7 |  |  |  |  |  |  |  |  | 
2 | CCOC(=O)C(/C(=N/S(=O)(=O)c1cc(C)c(Cl)cc1[S-])[n+]1ccc(N(C)C)cc1)=C(/O)c1ccc([N+](=O)[O-])cc1 | > 100 µM | > 100 µM | 25.3 | 82.7 | > 100 | 28.3 | > 100 | 90.2 |  | > 100 |  |  |  |  |  |  |  |  | 
3 | N#CC12Cc3cc4c(cc3-c3cccc(c31)CCN2C(=O)c1ccccc1)OCO4 (stereo not drawn) | > 100 µM | > 100 µM | > 100 | > 100 | > 100 | > 100 | > 100 | > 100 | > 100 | > 100 |  |  |  |  |  |  |  |  | 
4 | O=C(O)c1ccc(C(=O)c2ccccc2C(=O)O)cc1C(=O)O | > 100 µM | > 100 µM | > 100 | > 100 | > 100 | > 100 | > 100 | > 100 | > 100 | > 100 |  |  |  |  |  |  |  |  | 
5 | OC(c1ccccc1)(c1ccccc1)c1nccc2ccccc12 | > 100 µM | > 100 µM | > 100 | > 100 | > 100 |  | > 100 | > 100 | 89.5 | 59.4 |  |  |  |  |  |  |  |  | 
6 | Nc1c(C(=O)O)nnc2cc(Cl)c(Cl)cc12 | > 100 µM | > 100 µM | > 100 | > 100 | > 100 | > 100 | > 100 | > 100 | > 100 | > 100 |  |  |  |  |  |  |  |  | 
7 | COc1ccc(C(=O)C2=NON3OC23C(=O)c2ccc(OC)cc2)cc1 (stereo not drawn) | 28 µM | 28.6 µM | 34.9 | 36.6 | 48.5 | 34.5 | 21 | 21.7 | 17.8 | > 21.9 |  |  |  |  |  |  |  |  | 
8 | Cc1ccccc1N=Nc1c(O)c(S(=O)(=O)O)cc2cc(S(=O)(=O)O)ccc12 | > 100 µM | > 100 µM | > 100 | > 100 | > 100 | > 100 | > 100 | > 100 | > 100 | > 100 |  |  |  |  |  |  |  |  | 
9 | CN(C)c1ccc(C=Nc2ccc(Oc3ccc(Cl)cc3)c(Cl)c2)cc1 | 22.9 µM | 43.6 µM | 44.6 | 34.2 | 53.4 | 37.4 | 36.8 | 45.2 | 39.9 | 66.3 |  |  |  |  |  |  |  |  | 
10 | COCC1CCCN1c1ccc(C=N/C(C#N)=C(\N)C#N)cc1 (stereo not drawn) | > 100 µM | 84.5 µM | > 100 | > 100 | > 100 | > 100 | > 100 | > 100 | > 100 |  | 4.98 | 4.85 | > 100 | > 100 | 14 | > 100 | 45.3 | > 100 | > 100
11 | Cc1coc2c1C[C@@]1(C)[C@H](CCC[C@@H]1C)[C@H]2O |  | 55.5 µM | 88.3 | > 100 |  |  | > 100 | > 100 | > 100 | 59.7 |  |  |  |  |  |  |  |  | 
12 | CC(C)(C)OC(=O)n1c2ccccc2c2c(=O)nc(N3CCCCC3)sc21 | 44.9 µM | > 100 µM | > 100 | > 100 | > 100 | > 100 | > 100 | > 100 | > 100 | > 100 |  |  |  |  |  |  |  |  | 
13 | O=c1ccc2nc3cc(Br)ccc3sc-2c1 | > 100 µM | > 100 µM | > 100 | > 100 | > 100 | > 100 |  | > 100 | > 100 | > 100 |  |  |  |  |  |  |  |  | 
14 | CC(=O)OC1CC[C@@]2(C)C(=CC[C@@H]3[C@@H]2CC[C@]2(C)Nc4nn(S(C)(=O)=O)cc4C[C@@H]32)C1 (stereo partly drawn) | > 100 µM | > 100 µM |  | 81.8 |  | 58.8 | > 100 | > 100 | > 100 | 53.9 |  |  |  |  |  |  |  |  | 
15 | COc1nc2[nH]ccc2c(=O)[nH]1 | > 100 µM | > 100 µM | > 100 | > 100 | > 100 | > 100 | > 100 | > 100 | > 100 | > 100 |  |  |  |  |  |  |  |  | 
16 | C[N+]1(CCC(=O)c2ccco2)CC2CCC(CC2)C1 (stereo not drawn) | > 100 µM | > 100 µM | > 100 | > 100 | > 100 | > 100 | > 100 | > 100 | > 100 | > 100 |  |  |  |  |  |  |  |  | 
17 | Cn1cnc([N+](=O)[O-])c1Sc1nc(N)nc2c1ncn2C1OC(CO)C(O)C1O (stereo not drawn) | 37.4 µM | > 100 µM | > 100 | 32.7 | > 91 | 21.1 | > 100 | 23.8 | 41.4 | > 100 |  |  |  |  |  |  |  |  | 
18 | COCCNCc1ccc(-c2cc3nccc(Oc4ccc(NC(=S)NC(=O)Cc5ccc(F)cc5)cc4F)c3s2)nc1 |  |  | 3.52 | 2 | 3.29 | 19.1 | 5.12 | 4.3 | 4.63 |  |  |  | 1.84 | 0.328 | 1.72 | 6.01 | 2.17 | 2.02 | 1.51
19 | CC(C)(C)OC(=O)NC(CCCCNC(=O)OCc1ccccc1)C(=O)NCCNc1ccc(NCCNC(=O)C(CCCCNC(=O)OCc2ccccc2)NC(=O)OC(C)(C)C)c2c1C(=O)c1ccccc1C2=O (stereo not drawn) | > 100 µM | > 100 µM | > 100 | > 100 | > 100 | 20.5 | > 78.1 | > 100 | > 100 | > 100 |  |  |  |  |  |  |  |  | 
20 | OCc1cn(C(c2ccccc2)(c2ccccc2)c2ccccc2)cn1 | > 100 µM | > 100 µM | > 100 |  | > 100 | > 100 | > 100 | > 100 | > 100 | > 100 |  |  |  |  |  |  |  |  | 
21 | O=c1[nH]c(Nc2ccc(Cl)c(C(F)(F)F)c2)nc2nc[nH]c12 | > 100 µM | > 100 µM | > 100 | > 100 | > 100 | 91.2 | > 100 | > 100 | > 100 | 62.4 |  |  |  |  |  |  |  |  | 
22 | Clc1ccccc1/C=c1\nc(-c2ccccc2)n2c1nc1ccccc12 | > 100 µM | > 100 µM | > 100 | > 100 | > 100 | > 100 | > 100 | > 100 | 47.8 | > 100 |  |  |  |  |  |  |  |  | 
23 | Cn1c(=O)[nH]c2nncnc2c1=O | 358 µM | > 497 µM | 302 | > 353 | > 525 | 312 | > 62.5 | 501 | 420 | > 625 |  |  |  |  |  |  |  |  | 
24 | Nc1ncnc2c1sc1nc3ccccc3n12 | > 100 µM | > 100 µM | > 100 | > 85 | > 100 | > 100 | > 100 | > 100 | > 100 | > 78.7 |  |  |  |  |  |  |  |  | 
25 | CCC(C)C1NC(=O)C(NC(=O)c2c3nc4c(C(=O)NC5C(=O)NC(C(C)CC)C(=O)N6CCCC6C(=O)N(C)CC(=O)N(C)C(C(C)C)C(=O)OC5C)ccc(C)c4oc-3c(C)c(=O)c2N)C(C)OC(=O)C(C(C)C)N(C)C(=O)CN(C)C(=O)C2CCCN2C1=O (stereo not drawn) (I: TIP[Sar][NMeV] / II: TIP[Sar][NMeV]; ester I:1-I:C, II:1-II:C; linker I:N-II:N via Actinocin(1to9); configuration not given here) | 0.143 µM and 0.316 µM | 0.192 µM and 0.263 µM | 0.00726 | 0.194 | 10.9 | 0.00277 | 0.125 | 0.00309 | 0.0168 | 0.0144 |  |  |  |  |  |  |  |  | 
